# Test results from patent US5422344A, “Method of treating retroviral infections in mammals” (The United States of America as represented by the …, priority 1990, dated 1995).
# Like-named read-outs stand apart in the source and are kept apart here.
# Experiments:
# [1] = Cell number, viability (trypan blue dye exclusion) and growth of H9 cells; format: cell-based; conditions: human, h9 cells
# [2] = system: HIV p24 antigen; experiment: Western blot analysis of HIV p24 antigen after HIV infection and CPT treatment; format: cell-based, HIV-1; conditions: 7 days post-infection
# Description: A. H9 cells were infected as described in Table 1 and the text. Virus was pelleted from culture supernatants 7 days after infection. The viral pellets were resuspended, lysed, and the proteins separated and transferred as described in the Examples. The blot was analyzed using an HIV p24 specific monoclonal antibody (S. Showalter and M. Zweig, unpublished), and visualized using the Bio-Rad immunogold kit. Lane 1: virus from untreated infected cells; lane 2: virus from cells treated with 0.005 μM CPT for the first 18 h after infection.
# B. Extracts of HIV-infected cells (7 days post-infection) were prepared and analyzed as described in the Examples using an HIV p24 specific monoclonal antibody (S. Showalter and M. Zweig, unpublished). Blots were visualized using the Bio-Rad immunogold kit. Lane 1: untreated infected cells; lane 2: 0.2 μM CPT; lane 3: 0.1 μM CPT; lane 4: 0.05 μM CPT; lane 5: 0.02 μM CPT; lane 6: 0.01 μM CPT; lane 7: 0.005 μM CPT. […]
# The culture media from cells subjected to different treatments was prepared by centrifugation (200xg, 10 min) to remove whole cells and debris, the viral particles were subsequently pelleted (35,000 rpm, 11/2h), and the viral pellet was resuspended in 100 μl of RIPA buffer (50 mM Tris-HC1, pH 7.5; 0.5M NaHPO4, 0.5% NP40, 0.25% Na-deoxycholate, 0.1% SDS). […] Protein concentration was determined using the Bio-Rad protein assay. […]
# [3] = system: HIV-IIIB (HIV-1) replication in H9 cells; experiment: HIV replication in cocultivation of H9/HIV-IIIB chronically infected cells with H9 cells; format: cell-based
# Description: 10 H9/HIV-IIIB (A,D), 100 H9/HIV-IIIB (B,E) or 1000 H9/HIV-IIIB cells (C,F) were cocultivated with 10^5 H9 cells in the presence or absence of 0.01 μM (A,B), 0.2 μM (C) , 0.005 μM (D,E), or 0,005-0.01 μM (F) of CPT for 1 h (A,B,C) or 18h (D,E,F). RT activity was measured in the culture media 7,8, and 9 days post-infection and treatment.
# Cocultivation of H9/HIV-IIIB Cells with Uninfected H9 Cells and CPT Treatment: Ten, 100 or 1,000 H9/HIV-IIIB cells were cocultivated with 10^5 H9 cells in the presence or absence of different CPT doses. Cells were incubated for 1 h at 37° C., pelleted, washed and resuspended in fresh media. RT activity in the culture media was measured seven, eight, and nine days after infections, as described above.
# For a longer treatment period, H9/HIV-IIIB cells were cocultivated with H9 cells in the presence or absence of 0.005-0.01 μM CPT for 18 h at 37° C.
# CPT Inhibition of HIV Replication in Cocultivation of H9/HIV-IIIB Chronically Infected Cells with H9 Uninfected Cells. Since it is likely that HIV infection in vivo involves cell to cell contact and virus production by previously infected cells, the ability of CPT to block the spread of HIV in uninfected H9 cells cocultivated with cells chronically infected with HIV was examined. The results shown in FIG. 2A indicate that 100% inhibition of HIV replication was observed when 10 infected cells were mixed with uninfected cells in the presence of 0.01 μM CPT for 1 h. […] However, increasing the CPT dose to 0.2 μM reduced HIV replication to 15% of control values when 1000 infected cells were mixed with 10^5 uninfected H9 cells (FIG. 2C).
# [4] = system: Friend virus/spleen focus forming virus (SFFV); experiment: Inhibition of Friend virus disease in mice (spleen weight, IP); format: in vivo, male NFS mice; conditions: for Number Friend disease positive (spleen weight >0.2 g) / Spleen weight AVG.: 4 weeks
# From the text: INHIBITION OF FRIEND VIRUS DISEASE IN MICE BY CAMPTOTHECIN. […] The Friend virus/spleen focus forming virus (SFFV) mouse model was used to test CPT in vivo. SFFV is a defective type C retrovirus which induces the rapid onset of erythroleukemia, characterized by severe splenomegaly, and death of the affected animal within 3-6 weeks after innoculation. A well characterized stock of SFFV, in complex with an amphotropic murine C-type virus which induced only a low incidence of lymphoid and myloid disease after a long latency, was injected into adult mice at viral dilutions which would be expected to induce Friend erythroleukemia in essentially 100% of infected mice.
# Male NFS mice were injected IP with 0.5 ml of virus stock to which CPT, disolved in DMSO, was added. The average weight of a mouse was 24 g, and CPT was added from a stock at 10 mg/ml. DMSO was added to A, E and I viral inoculum at 2.8%, the maximum level. Animals were sacrificed 4 weeks after inoculation, and spleens were weighed to determine the incidence of Friend virus induced splenomegaly.
# [5] = system: lentivirus-associated topoisomerase; experiment: Inhibition of lentivirus-associated topoisomerase activity; format: biochemical, HIV and EIAV
# [6] = system: HIV; experiment: Virus production in chronically HIV-infected cells; format: cell-based; conditions: non-cytotoxic doses; preliminary evidence
# [7] = system: experimental tumors and human colon cancer; conditions: cited from earlier work
# [8] = group B, virus dil. 1/500, CPT 5 mg/kg IP
# [9] = group C, virus dil. 1/500, CPT 10 mg/kg IP
# [10] = group D, virus dil. 1/500, CPT 20 mg/kg IP
# [11] = group F, virus dil. 1/2000, CPT 5 mg/kg IP
# [12] = group G, virus dil. 1/2000, CPT 10 mg/kg IP
# [13] = group H, virus dil. 1/2000, CPT 20 mg/kg IP
# [14] = group J, no virus, CPT 5 mg/kg IP
# [15] = group K, no virus, CPT 10 mg/kg IP
# [16] = group L, no virus, CPT 20 mg/kg IP
compound,measurement,setting,value
"CC[C@@]1(O)C(=O)OCc2c1cc1n(c2=O)Cc2cc3ccccc3nc2-1 [CPT, Camptothecin]","viability at 168 h, 0.005 µM","[1]; 0.005 μM CPT, 7 days postinfection",100%
same,"viability at 168 h, 0.01 µM","[1]; 0.01 μM CPT, 7 days postinfection",100%
same,"viability at 168 h, 0.02 µM","[1]; 0.02 μM CPT, 7 days postinfection",100%
same,"viability at 168 h, 0.05 µM","[1]; 0.05 μM CPT, 7 days postinfection",100%
same,"viability at 168 h, 0.1 µM","[1]; 0.1 μM CPT, 7 days postinfection",100%
same,"viability at 168 h, 0.2 µM","[1]; 0.2 μM CPT, 7 days postinfection",100%
same,selectivity ratio,"[1]; data not shown, read-out: anti-HIV doses vs cytotoxic doses (times lower)",400
same,p24 in culture media,[2]; 0.005 μM CPT for first 18 h (FIG. 1A),could not be detected in the culture media
same,p24 in cell extracts,"[2]; 0.005-0.2 μM CPT, 1 h (FIG. 1B)",could not be detected in extracts
same,activity at 0.2 µM,"[3]; Human immunodeficiency virus 1, IIIB, H9, 1 h, read-out: HIV replication reduced to % of control values",15%
same,inhibition at 0.01 µM,"[3]; Human immunodeficiency virus 1, IIIB, H9, 1 h, read-out: inhibition of HIV replication, 10 infected cells, 0.01 μM CPT, 1 h",100%
same,inhibition at 0.01 µM,"[3]; Human immunodeficiency virus 1, IIIB, H9, 1 h, read-out: inhibition of HIV replication, 100 infected cells, 0.01 μM CPT, 1 h",50%
same,inhibition at 0.01 µM,"[3]; Human immunodeficiency virus 1, IIIB, H9, 1 h, read-out: inhibition of HIV replication, 1000 infected cells, 0.01 μM CPT, 1 h (data not shown)",13%
same,inhibition at 0.005 µM,"[3]; Human immunodeficiency virus 1, IIIB, H9, 18 h, read-out: inhibition of HIV replication (RT activity), 10 or 100 infected cells, 0.005 μM CPT, 18 h, days 7, 8 and 9",98 to 100%
same,inhibitory effect on HIV replication,"[3]; larger numbers of infected cells, 0.2 μM CPT, or 0.005 μM for 18h",strong inhibitory effect on HIV replication
same,Number Friend disease positive (spleen weight >0.2 g),[4]; [8],4/5
same,Spleen weight AVG.,[4]; [8],0.78 g
same,Number Friend disease positive (spleen weight >0.2 g),[4]; [9],3/5
same,Spleen weight AVG.,[4]; [9],0.84 g
same,Number Friend disease positive (spleen weight >0.2 g),[4]; [10],4/5
same,Spleen weight AVG.,[4]; [10],0.28 g
same,Number Friend disease positive (spleen weight >0.2 g),[4]; [11],1/5
same,Spleen weight AVG.,[4]; [11],0.22 g
same,Number Friend disease positive (spleen weight >0.2 g),[4]; [12],0/5
same,Spleen weight AVG.,[4]; [12],0.18 g
same,Number Friend disease positive (spleen weight >0.2 g),[4]; [13],1/5
same,Spleen weight AVG.,[4]; [13],0.22 g
same,Number Friend disease positive (spleen weight >0.2 g),[4]; [14],0/5
same,Spleen weight AVG.,[4]; [14],0.12 g
same,Number Friend disease positive (spleen weight >0.2 g),[4]; [15],0/5
same,Spleen weight AVG.,[4]; [15],0.10 g
same,Number Friend disease positive (spleen weight >0.2 g),[4]; [16],0/5
same,Spleen weight AVG.,[4]; [16],0.12 g
same,induction of erythroleukemia by SFFV,[4]; in vivo,blocks the induction of erythroleukemia by SFFV in vivo
same,effect on number of mice with enlarged spleens and average spleen weight,"[4]; vs control, virus infected mice",reduced the number of mice showing enlarged spleens and the average spleen weight
same,lentivirus-associated topoisomerase activity,[5],inhibited this activity
same,virus production in chronically HIV-infected cells,[6],virus production is suppressed
same,antitumor activity,[7],strong antitumor activity
